In brackets after ≈: the same amount, converted by molar mass. Counter-ions that a name gives are not always drawn. Like-named read-outs stand apart in the source and are kept apart here. Values belong to the compound of their own block, whether it stands above or below them.
Tests used:
[1] = Equilibrium solubility in HBSS* buffer (HPLC-UV); assay type: physicochemical; settings: HEPES buffered HBSS (HBSS*) buffer, pH 7.4, 37°C, mean ± SD, N = 3
Procedure: The mobile phases (MP) consisted of ultra-pure water containing 0.1% trifluoroacetic acid (MP A) and acetonitrile containing 0.1% trifluoroacetic acid (MP B). A reversed-phase column (Nova-Pak® C18, 4 μm, 3.9 × 150 mm, Waters, Milford, MA, United States) was applied and maintained at 22°C. The flow was constant at 0.6 mL ⋅ min^−1 with an isocratic elution of 40% MP A and 60% MP B for 53B, 55B, and 57B, an isocratic elution of 30% MP A and 70% MP B with a constant flow of 0.8 mL ⋅ min^−1 for MMTC, and an isocratic elution of 60% MP A and 40% MP B with a constant flow of 0.6 mL ⋅ min^−1 for […]. Samples of 20 μL, maintained at 25°C, were injected and all five compounds were measured at 270 nm. […] The calibration curves ranged from 5 to 30 µM for MMTC and 53B and from 7.5 to 30 µM for 54F, 55B, and 57B. Linear regression of peak height as a function of concentration was analyzed using GraphPad Prism 9.4.1.
The 5 mL vials were then left on a rotator covered in aluminum foil at 37°C. After 72 h rotation, the solutions were equally distributed into three 1.5 mL microtubes, to do triplicate measurements, and centrifuged at 10,000 g at room temperature for 10 min. The supernatant was removed and for 53B, 54F, and 57B the supernatant was diluted 1:2 with their respective mobile phases. For MMTC and 55B, the supernatant was diluted 2:1 with their respective mobile phase. The diluted samples were analyzed by HPLC-UV as described in Section 2.4.
For the quantification of MMTC, 53B, 54F, 55B, and 57B a linear regression was made of each of the calibration curves, where the known concentrations were plotted as a function of the peak height.

[2] = Kinetic solubility of MMTC diluted from DMSO stock into HBSS*; assay type: physicochemical; settings: HBSS* buffer, 37°C
Procedure: Quantification of compounds was performed using a Waters 2695 HPLC system (Waters Corporation, MA, United States) connected to a Waters 2487 Dual λ Absorbance Detector (Waters Corporation, MA, United States). The mobile phases (MP) consisted of ultra-pure water containing 0.1% trifluoroacetic acid (MP A) and acetonitrile containing 0.1% trifluoroacetic acid (MP B). A reversed-phase column (Nova-Pak® C18, 4 μm, 3.9 × 150 mm, Waters, Milford, MA, United States) was applied and maintained at 22°C. The flow was constant at 0.6 mL ⋅ min^−1 with an isocratic elution of 40% MP A and 60% MP B for 53B, 55B, and 57B, an isocratic elution of 30% MP A and 70% MP B with a constant flow of 0.8 mL ⋅ min^−1 for MMTC, and an isocratic elution of 60% MP A and 40% MP B with a constant flow of 0.6 mL ⋅ min^−1 for […]. Samples of 20 μL, maintained at 25°C, were injected and all five compounds were measured at 270 nm. MMTC, 53B, 54F, 55B, and 57B had retention times of 4.00, 2.47, 5.14, 2.92, and 4.00 min, respectively. […] Linear regression of peak height as a function of concentration was analyzed using GraphPad Prism 9.4.1. […]
The 5 mL vials were then left on a rotator covered in aluminum foil at 37°C. […] The diluted samples were analyzed by HPLC-UV as described in Section 2.4. […]

SNAT2 = target: T1, SNAT2 (Homo sapiens, UniProt Q96QD8); assay: 3H-Gly uptake in hyperosmotically treated PC-3 cells; assay type: cell-based; settings: for Inhibition of 3H-Gly uptake (overall finding, in words): concentration not given, 54F at the highest soluble concentration
T1 construct: endogenous in cells; host or cells: PC-3 cells (ECACC 90,112,714), 24 h in hyperosmotic medium
T1 sequence (Q96QD8 1-506): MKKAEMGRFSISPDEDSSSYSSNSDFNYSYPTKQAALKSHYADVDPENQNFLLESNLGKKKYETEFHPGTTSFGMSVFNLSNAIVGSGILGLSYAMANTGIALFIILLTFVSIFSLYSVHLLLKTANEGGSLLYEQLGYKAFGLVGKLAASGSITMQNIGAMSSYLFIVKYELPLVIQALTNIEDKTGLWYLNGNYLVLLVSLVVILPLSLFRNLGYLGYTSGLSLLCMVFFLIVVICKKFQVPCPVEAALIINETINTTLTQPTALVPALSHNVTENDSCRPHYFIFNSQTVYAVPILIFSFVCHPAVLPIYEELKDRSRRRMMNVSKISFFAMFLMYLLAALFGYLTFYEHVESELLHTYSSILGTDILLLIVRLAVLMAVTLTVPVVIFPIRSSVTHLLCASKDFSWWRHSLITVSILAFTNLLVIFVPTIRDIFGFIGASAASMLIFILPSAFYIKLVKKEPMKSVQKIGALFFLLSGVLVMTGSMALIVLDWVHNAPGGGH
Procedure: PC-3 cells (ECACC 90,112,714) were obtained from the European Collection of Authenticated Cell Cultures (ECACC; UK Health Security Agency, Salisbury, United Kingdom) and were received in passage 31. […] The cells were kept incubated at 37°C in an atmosphere of 5% CO2 and 94%–97% relative humidity and the culture medium was changed every 2–3 days. For hyperosmotic stimulation, PC-3 cells were incubated in hyperosmotic media for 24 h before the uptake experiment. The hyperosmotic media was made by supplementing normal isoosmotic culture medium with 200 mM raffinose to reach an osmolality of approximately 500 mOsm ⋅ kg^−1. For uptake studies, the PC-3 cells were seeded in 24-well plates (area of 1.9 cm^2) at a density of 1.5 ⋅ 10^5 cells ⋅ cm^−2 2 days before the experiment. Experiments were performed using PC-3 cells in passages 2–15 after thawing.
Hyperosmotically treated PC-3 cells were used to study the uptake of radiolabeled ^3H-Gly. Solutions were prepared using Hanks Balanced Salt Solution (HBSS), which consisted of the following (mM): CaCl2, 1.26; MgCl2, 0.49; MgSO4, 0.41; KCl, 5.33; KH2PO4, 0.44; NaCl, 138; Na2HPO4, 0.34; D-glucose, 5.56; NaHCO3, 4.17. HBSS was supplemented with 10 mM HEPES and adjusted to pH 7.4 ± 0.01 (HBSS*) with […]. Donor solutions contained 0.5 μCi/mL of ^3H-glycine (11.1 nM). MMTC was also investigated at a substrate concentration of 100 µM Gly, which was achieved by the addition of unlabeled Gly to donor solutions containing 0.5 μCi/mL of ^3H-Gly (11.1 nM). […] Before starting the uptake experiment the media was aspirated, and the cells were preincubated in HBSS* for 15 min at 37°C and 220 rpm. To initiate the uptake study, the buffer was removed and 300 µL of prewarmed (37°C) donor solution was added to the cells and incubated at 37°C. During incubation, the cells were circularly rotated at 220 rpm using a Talboys incubating microplate shaker (Troemner, Thorofare, NJ, United States). After 5 min, the uptake experiment was terminated by removing the buffer solutions by vacuum suction, and the cells were washed thrice with 500 µL ice-cold HBSS. […] The cells were then detached by applying 200 µL of 0.1% Triton-X 100 for at least 25 min and cells were then transferred to scintillation vials along with 2 mL of Ultima Gold scintillation fluid. The vials were vortexed before being analyzed by a liquid scintillation counter, which was a TriCarb 4910 TR from PerkinElmer (Waltham, MA, United States).
^3H-Gly uptake values were normalized to the control uptake of each experiment, but without subtracting any background uptake.
Statistical differences were tested in GraphPad Prism 9.4.1 using one-way ANOVA followed by Dunnett’s multiple comparison test. The significance level used was p < 0.05 (*). Data are represented as means ± SEM from independent cell passages (n) unless otherwise stated.

ASCT2 = system: ASCT2; parameters: method as in Schulte et al., 2016; Schulte et al., 2018; settings: HEK293 cells, ref Schulte et al., 2016, 2018; cited from earlier work
PC-3 cells = system: PC-3 cells; parameters: method as in Nielsen et al., 2022; settings: ref Nielsen et al., 2022, read-out: Km of uptake; cited from earlier work
[3] = at soluble conditions / within soluble concentration range

SMILES: Cc1cccc(COc2ccccc2CN(CC[C@H](N)C(=O)O)Cc2ccccc2OCc2cccc(C)c2)c1 [V-9302]
IC50 (ASCT2): 7 to 10 µM

SMILES: O=C(O)[C@@H]1CCCN1 [Pro]
Km (PC-3 cells): 780 ± 100 µM

SMILES: N=C(N)NCCC[C@H](N)C(=O)O [L-Arg, L-arginine hydrochloride]
Effect on 3H-Gly uptake (SNAT2; 20 mM, 11.1 nM 3H-Gly, 5 min): did not affect the uptake significantly

SMILES: NCC(=O)O [Gly, glycine]
Km (PC-3 cells): 750 ± 160 µM

Now from value to compound:

solubility thermodynamic ([1]; aqueous buffer): < 1.8 µM
solubility kinetic ([2]; aqueous buffer, kinetic from dmso stock, within 15 min, remained stable for at least 45 min, read-out: MMTC concentration after dilution of DMSO stock to 10 µM in HBSS*): ~2.5 µM (≈ 1.17 µg/mL)
solubility kinetic ([2]; pH 7.4, HBSS*, during the course of the uptake study, read-out: Kinetic solubility): 2.5 to 10 µM (≈ 1.17 to 4.69 µg/mL)
Inhibition of Gly uptake (SNAT2; 1 µM MMTC, substrate concentration 100 µM Gly, Supplementary Figure S1, n = 1): does not inhibit
Inhibition of SNAT2-mediated 3H-Gly uptake (SNAT2; 1 µM compound, 11.1 nM 3H-Gly, 5 min, 37°C, 1% DMSO): no inhibition
Inhibition of SNAT2-mediated 3H-Gly uptake (SNAT2; 5 µM compound, 11.1 nM 3H-Gly, 5 min, 37°C, 1% DMSO): no inhibition
Inhibition of 3H-Gly uptake (overall finding, in words) (SNAT2): did not inhibit
SMILES: Cc1ccc(S(=O)(=O)N(C)c2ccsc2C(=O)NCc2ccccc2C(F)(F)F)cc1 [MMTC, 3-(N-methyl (4-methylphenyl)sulfonamido)-N-(2-trifluoromethylbenzyl)thiophene-2-carboxamide]

solubility thermodynamic ([1]; aqueous buffer): 56.1 ± 0.5 µM (≈ 23 µg/mL)
Inhibition of 3H-Gly uptake compared to control (SNAT2; 50 µM compound, 11.1 nM 3H-Gly, 5 min, 37°C, 1% DMSO): approximately 20%
Inhibition of 3H-Gly uptake (overall finding, in words) (SNAT2): significant, but small, inhibition
SMILES: CC(C)c1ccc(S(=O)(=O)Nc2ccc3nc(S(C)(=O)=O)sc3c2)cc1 [54F]

solubility thermodynamic ([1]; aqueous buffer): 13.2 ± 1.6 µM (≈ 5.56 µg/mL)
solubility thermodynamic [1]: 13.3 µM (≈ 5.6 µg/mL)
Inhibition of 3H-Gly uptake (SNAT2; [3]): no inhibition
SMILES: COC(=O)c1ccccc1NC(=O)Nc1c(-c2ccncc2)[nH]c2ccc(Cl)cc12 [55B]

Inhibition of Gly uptake (in words) (SNAT2; 50 mM betaine, 20 mM Gln, Figure 1): almost completely inhibits
Inhibition of 3H-Gly uptake (SNAT2; 50 mM, 11.1 nM 3H-Gly, 5 min): around 86%
SMILES: C[N+](C)(C)CC(=O)O [betaine]

solubility thermodynamic ([1]; aqueous buffer): 27.5 ± 1 µM (≈ 12.2 µg/mL)
Inhibition of 3H-Gly uptake (SNAT2; [3]): no inhibition
SMILES: Cc1nc(-n2nc(C)c(Cc3ccc(Cl)cc3)c2C)sc1C(=O)N1CCN(C)CC1 [57B]

solubility thermodynamic ([1]; aqueous buffer): 24.9 ± 0.8 µM (≈ 9.6 µg/mL)
Inhibition of 3H-Gly uptake (SNAT2; [3]): no inhibition
SMILES: Cc1ccccc1Nc1c(-c2ccc(N3CCOCC3)cc2)nc2cnccn12 [53B]
